# Measurements reported in publication PMC5712521, “Dendrogenin A drives LXR to trigger lethal autophagy in cancers” (Nature Communications, 2017).
# Experiments:
# KG1 cells [1] = assay: Immunoblot densitometry; type: cell-based, human; conditions: 5 µM DDA; for LC3-II protein, densitometry relative to control: KG1, 24 h, 2 µM TO, 2 µM GW, 10 µM 22(R)HC
# Procedure: Immunoblotting was carried out as described previously. Proteins were separated on SDS-PAGE gels, electro-transferred onto polyvinylidene difluoride membranes and incubated overnight at 4 °C with the following antibodies: anti-Atg3, anti-Atg5 (D1G9), anti-Atg7 (D12B11), anti-Beclin (D40C5), anti-caspase-3 (Cell Signaling), anti-Bcl-2 (Millipore), anti-Bax (Millipore), anti-LC3 (Sigma-Aldrich), anti-LXRα (SantaCruz), anti-LXRβ (SantaCruz), anti-Nur77 (Active motif), anti-NOR1 (R&D systems), anti-PARP (Cell Signaling), anti-Vps34 (Cell Signaling), or anti-Actin (Millipore). For visualization, an ECL plus kit (Amersham Biosciences) was used, and chemiluminescence was measured by autoradiography (Supplementary Fig. 9). Specific bands were quantified with ImageQuant software.
# (§1) Supplementary Fig. 6. […]
# D ata from b, f, g, h, j, p, q ar e the m eans ± S.E.M. of 3 independent experiments performed in triplicate (*P<0.05, **P<0.01, ***P<0.001, t test). Images are representative of 3 independent experim ents.
# Supplementary Fig. 7. a Im munoblots of Nur77 and NOR1 proteins in cells treated or not for 24 h with 5 µM DDA. b Real-time PCR of Nur77 and NOR1 expression in KG1 cells stably transfected with control shRNA (clone shCTRL) or with shRNA against LXRβ (clones sh3LXRβ and sh4LXRβ) and treated with 10 µM DDA for 24 h. c Immunoblots of Nur77 and NOR1 protein expression in KG1 cells stably transfected with control shRNA (clone shCTRL), shRNA against Nur77 (shNur77), shRNA against NOR1 (shNOR1), or shRNAs against both Nur77 and NOR1 (shNur77 + shNOR1). d NOD/SCID mice
# (n=16- 20 mice/group) engrafted with KG1 cells or HL60 cells were treated with DDA (20 mg/kg/day, i.p.) or solvent vehicle (control). Tumor growth was monitored over time and was analyzed for significance using repeated measures ANOVA (***P<0.001). The mean tumor volumes ± SEM are shown. e Average tumor weight at the end of the experiments in d. *P<0.5, **P<0.01, ANOVA. f Mean tumor volumes measured at the end of the experiments for HL60 and KG1 graf ted into NOD/SCID or NMRI-Fo x1 -nude mice treated with DDA (40 mg/kg/day, p.o. or 20 mg/kg/day, i.p.) or solvent vehicle (control) (n=10- 20 mice per group). Values represent the means ± S.E.M. (**P<0.01, ***P<0.001, ANOVA). g Histochemical analysis of the expression of LC3 and P62 in HL60 tumor sections isolated from NOD/SCID mice treated or not with DDA (20 mg/kg/day, i.p.). h Quantification of LC3 punctate cells in shCTRL and shLXRβ KG1 tumors. i Quantification of DDA levels in tumors 4 h after the final administration of DDA. j Box plot of TCGA RNA-seq data from patients with melanoma showing that LXRβ is the predominant LXR isoform expressed.
# ***P<0.001. k, l Immunoblotting of the indicated proteins in primary AML cells exposed to vehicle or 5 µM DDA for 24 h. m, n qPCR analysis of the expression of Nur77 and NOR1 in primary AML cells from 10 patients exposed to vehicle or DDA for 24 h. Bars represent S.E.M. (**P<0.01, ***P<0.001, t test). Data from b, h, i represent means ± S.E.M. of triplicate samples (>100 cell analyses per sample), **P<0.01, ***P<0.001, t test. All data or images are representative of 3 independent experiments.
# KG1 cells [2] = assay: qRT-PCR of Nur77 and NOR1; type: cell-based, human; conditions: KG1, 24 h; 5 µM DDA, 2 µM TO, 2 µM GW, 10 µM 22(R)HC
# Procedure: (§2) Total RNA was extracted from tumor cells or MEFs using an RNA Extraction kit (Qiagen) or Trizol (Invitrogen), respectively, and was quantified with NanoDrop. Complementary DNA (cDNA) synthesis was performed with 1 μg RNA iScript Reverse Transcriptase (Bio-Rad). 25 ng cDNA was amplified using SyBR Supermix (Bio-Rad). RNA expression of the different genes of interest (Supplementary Tables 1, 2) were determined using the ΔΔCT method, where the difference in the threshold cycle (ΔCT) values of the target gene and the housekeeping gene for each sample was normalized to the ΔCT value of the untreated sample.
# as §1
# (§3) D ata are expressed relative to the control (solvent vehic le). D ata from b, f, g, h, j, p, q ar e the m eans ± S.E.M. of 3 independent experiments performed in triplicate (*P<0.05, **P<0.01, ***P<0.001, t test). Images are representative of 3 independent experim ents.
# HL60 cells = assay: qRT-PCR of Nur77 and NOR1; type: cell-based, human; conditions: HL60, 24 h; 5 µM DDA, 2 µM TO, 2 µM GW, 10 µM 22(R)HC
# Procedure: as §2, §1, §3
# B16F10 cells = assay: RT-qPCR of LXR-responsive genes; type: cell-based, mouse; conditions: 8 h, 2.5 µM DDA, 10 µM 22(R)HC, 1 µM GW, 100 nM TO, vs vehicle
# Procedure: as §2
# Supplementary Fig. 4. a R egulat ion of LXR-responsive genes b y D DA and other k nown LXR
# ligands in B16F10 and SKMEL- 28 cells transfected with s iRN A targeting LXRβ ( siLXRβ) or
# with contro l siRN A scram ble (siSC). Cells were treated for 8 h with either solvent vehicle, 2.5
# µM DD A, 10 µM 22(R) hydrox ycholesterol (22(R)HC), 1 µM GW 3965 (GW ) or 100 nM
# T O901317 (T O). […]
SMILES,"LC3-II protein, densitometry relative to control (KG1 cells [1])",NOR1 mRNA levels (Fold over control) (KG1 cells [2]),Nur77 mRNA levels (Fold over control) (KG1 cells [2]),NOR1 mRNA levels (Fold over control) (HL60 cells),Nur77 mRNA levels (Fold over control) (HL60 cells),"ABCA1 mRNA (B16F10 cells; B16F10, siCT)","ABCG1 mRNA (B16F10 cells; B16F10, siCT)","ABCG5 mRNA (B16F10 cells; B16F10, siCT)","ABCG8 mRNA (B16F10 cells; B16F10, siCT)","LC3A mRNA (B16F10 cells; B16F10, siCT)","LC3B mRNA (B16F10 cells; B16F10, siCT)","LDLR mRNA (B16F10 cells; B16F10, siCT)","NOR1 mRNA (B16F10 cells; B16F10, siCT)","Nur77 mRNA (B16F10 cells; B16F10, siCT)","SCD1 mRNA (B16F10 cells; B16F10, siCT)","SREBP1 mRNA (B16F10 cells; B16F10, siCT)","SULT2b1b mRNA (B16F10 cells; B16F10, siCT)","ABCA1 mRNA (B16F10 cells; B16F10, siLXRβ)","ABCG1 mRNA (B16F10 cells; B16F10, siLXRβ)","ABCG5 mRNA (B16F10 cells; B16F10, siLXRβ)",also measured
"CC(C)CC[C@@H](O)[C@@H](C)[C@H]1CC[C@H]2[C@@H]3CC=C4C[C@@H](O)CC[C@]4(C)[C@H]3CC[C@]12C [22(R)HC, 22(R)-hydroxycholesterol]",1.5,6.3 fold,1.1 fold,0.7 fold,0.8 fold,12.5±2.5 fold,0.7±0.1 fold,4.2±0.2 fold,1.6±0.2 fold,1.3±0.1 fold,1.1±0.2 fold,0.1±0.1 fold,2.2±0.3 fold,1.4±0.1 fold,1.1±0.2 fold,2.2±0.2 fold,1.5±0.3 fold,4.2 ±0.9 fold,1.1±0.1 fold,2.0±0.5 fold,"ABCG8 mRNA (B16F10 cells; B16F10, siLXRβ): 1.0±0.1 fold; LC3A mRNA (B16F10 cells; B16F10, siLXRβ): 1.0±0.3 fold; LC3B mRNA (B16F10 cells; B16F10, siLXRβ): 1.0±0.1 fold; LDLR mRNA (B16F10 cells; B16F10, siLXRβ): 1.1±0.1 fold; NOR1 mRNA (B16F10 cells; B16F10, siLXRβ): 0.9±0.2 fold; Nur77 mRNA (B16F10 cells; B16F10, siLXRβ): 0.8±0.2 fold; SCD1 mRNA (B16F10 cells; B16F10, siLXRβ): 1.2±0.3 fold; SREBP1 mRNA (B16F10 cells; B16F10, siLXRβ): 1.2±0.1 fold; SULT2b1b mRNA (B16F10 cells; B16F10, siLXRβ): 1.1±0.2 fold"
"CC(C)CCC[C@@H](C)[C@H]1CC[C@H]2[C@@H]3C[C@@H](NCCc4cnc[nH]4)[C@@]4(O)C[C@@H](O)CC[C@]4(C)[C@H]3CC[C@]12C [DDA, Dendrogenin A]",8.3,12.2 fold,8.8 fold,6.3 fold,11.2 fold,0.4±0.1 fold,1.4±0.1 fold,3.5±0.1 fold,1.6±0.2 fold,2.4±0.2 fold,1.7±0.1 fold,4.2±0.2 fold,4.6±0.1 fold,6.8±0.2 fold,1.6±0.2 fold,0.9±0.1 fold,1.6±0.1 fold,1.2±0.1 fold,0.9±0.1 fold,1.0±0.1 fold,"ATG3 protein, densitometry relative to vehicle (KG1 cells [1]; KG1, 24 h): 2.1; ATG5 protein, densitometry relative to vehicle (KG1 cells [1]; KG1, 24 h): 0.9; ATG7 protein, densitometry relative to vehicle (KG1 cells [1]; KG1, 24 h): 1.2; BECN1 protein, densitometry relative to vehicle (KG1 cells [1]; KG1, 24 h): 0.9; NOR1 protein, densitometry relative to untreated (KG1 cells [1]; KG1, 24 h): 3.1; Nur77 protein, densitometry relative to untreated (KG1 cells [1]; KG1, 24 h): 3.4; ABCG8 mRNA (B16F10 cells; B16F10, siLXRβ): 1.2±0.1 fold; LC3A mRNA (B16F10 cells; B16F10, siLXRβ): 0.9±0.2 fold; LC3B mRNA (B16F10 cells; B16F10, siLXRβ): 1.0±0.2 fold; LDLR mRNA (B16F10 cells; B16F10, siLXRβ): 1.0±0.1 fold; NOR1 mRNA (B16F10 cells; B16F10, siLXRβ): 0.3±0.2 fold; Nur77 mRNA (B16F10 cells; B16F10, siLXRβ): 0.4±0.1 fold; SCD1 mRNA (B16F10 cells; B16F10, siLXRβ): 0.9±0.2 fold; SREBP1 mRNA (B16F10 cells; B16F10, siLXRβ): 0.9±0.2 fold; SULT2b1b mRNA (B16F10 cells; B16F10, siLXRβ): 0.8±0.1 fold"
"O=C(O)Cc1cccc(OCCCN(Cc2cccc(C(F)(F)F)c2Cl)CC(c2ccccc2)c2ccccc2)c1 [GW, GW3965]",0.8,1.8 fold,0.8 fold,0.3 fold,1.3 fold,14.3±1.6 fold,2.1±0.4 fold,1.9±0.5 fold,1.7±0.2 fold,1.1±0.1 fold,1.1±0.1 fold,2.0±0.1 fold,1.6±0.2 fold,1.0±0.3 fold,1.9±0.2 fold,3.1±0.2 fold,1.2±0.1 fold,2.6±0.1 fold,1.1±0.2 fold,0.9±0.1 fold,"ABCG8 mRNA (B16F10 cells; B16F10, siLXRβ): 0.9±0.1 fold; LC3A mRNA (B16F10 cells; B16F10, siLXRβ): 1.1±0.2 fold; LC3B mRNA (B16F10 cells; B16F10, siLXRβ): 1.1±0.3 fold; LDLR mRNA (B16F10 cells; B16F10, siLXRβ): 1.0±0.2 fold; NOR1 mRNA (B16F10 cells; B16F10, siLXRβ): 1.0±0.1 fold; Nur77 mRNA (B16F10 cells; B16F10, siLXRβ): 0.9±0.2 fold; SCD1 mRNA (B16F10 cells; B16F10, siLXRβ): 1.1±0.1 fold; SREBP1 mRNA (B16F10 cells; B16F10, siLXRβ): 1.1±0.2 fold; SULT2b1b mRNA (B16F10 cells; B16F10, siLXRβ): 1.0±0.1 fold"
